This experiment deals with T1, integrin α4β7 on α4β7+ memory T helper cells (Homo sapiens, UniProt P13612+P26010).
T1 construct: endogenous in cells
T1 sequence (P13612 34-1032): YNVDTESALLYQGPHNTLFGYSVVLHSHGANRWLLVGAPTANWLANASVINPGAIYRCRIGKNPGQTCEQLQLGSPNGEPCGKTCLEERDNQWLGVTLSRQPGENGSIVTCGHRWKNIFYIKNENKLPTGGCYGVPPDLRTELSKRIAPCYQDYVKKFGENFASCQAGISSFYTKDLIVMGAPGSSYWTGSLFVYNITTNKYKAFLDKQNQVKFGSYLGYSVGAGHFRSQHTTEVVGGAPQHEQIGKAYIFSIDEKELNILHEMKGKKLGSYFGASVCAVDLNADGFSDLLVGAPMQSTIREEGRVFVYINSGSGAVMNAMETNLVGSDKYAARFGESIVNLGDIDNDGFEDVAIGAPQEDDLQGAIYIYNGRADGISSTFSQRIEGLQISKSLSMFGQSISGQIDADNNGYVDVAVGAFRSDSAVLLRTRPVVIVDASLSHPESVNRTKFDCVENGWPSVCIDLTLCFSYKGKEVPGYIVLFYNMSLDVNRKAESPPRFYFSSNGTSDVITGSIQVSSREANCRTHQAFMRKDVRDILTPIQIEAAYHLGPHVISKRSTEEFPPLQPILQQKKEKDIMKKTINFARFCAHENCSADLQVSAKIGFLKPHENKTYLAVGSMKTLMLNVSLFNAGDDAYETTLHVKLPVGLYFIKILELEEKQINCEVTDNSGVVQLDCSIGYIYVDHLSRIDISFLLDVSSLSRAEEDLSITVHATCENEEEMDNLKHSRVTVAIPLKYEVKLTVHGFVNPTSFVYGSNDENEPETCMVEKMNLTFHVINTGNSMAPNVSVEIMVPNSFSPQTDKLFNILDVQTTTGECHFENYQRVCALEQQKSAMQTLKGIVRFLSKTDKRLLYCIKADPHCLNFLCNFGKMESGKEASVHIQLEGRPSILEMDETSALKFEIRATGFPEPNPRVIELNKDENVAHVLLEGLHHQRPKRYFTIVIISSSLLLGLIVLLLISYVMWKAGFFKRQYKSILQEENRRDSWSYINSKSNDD
T1 sequence (P26010 20-798): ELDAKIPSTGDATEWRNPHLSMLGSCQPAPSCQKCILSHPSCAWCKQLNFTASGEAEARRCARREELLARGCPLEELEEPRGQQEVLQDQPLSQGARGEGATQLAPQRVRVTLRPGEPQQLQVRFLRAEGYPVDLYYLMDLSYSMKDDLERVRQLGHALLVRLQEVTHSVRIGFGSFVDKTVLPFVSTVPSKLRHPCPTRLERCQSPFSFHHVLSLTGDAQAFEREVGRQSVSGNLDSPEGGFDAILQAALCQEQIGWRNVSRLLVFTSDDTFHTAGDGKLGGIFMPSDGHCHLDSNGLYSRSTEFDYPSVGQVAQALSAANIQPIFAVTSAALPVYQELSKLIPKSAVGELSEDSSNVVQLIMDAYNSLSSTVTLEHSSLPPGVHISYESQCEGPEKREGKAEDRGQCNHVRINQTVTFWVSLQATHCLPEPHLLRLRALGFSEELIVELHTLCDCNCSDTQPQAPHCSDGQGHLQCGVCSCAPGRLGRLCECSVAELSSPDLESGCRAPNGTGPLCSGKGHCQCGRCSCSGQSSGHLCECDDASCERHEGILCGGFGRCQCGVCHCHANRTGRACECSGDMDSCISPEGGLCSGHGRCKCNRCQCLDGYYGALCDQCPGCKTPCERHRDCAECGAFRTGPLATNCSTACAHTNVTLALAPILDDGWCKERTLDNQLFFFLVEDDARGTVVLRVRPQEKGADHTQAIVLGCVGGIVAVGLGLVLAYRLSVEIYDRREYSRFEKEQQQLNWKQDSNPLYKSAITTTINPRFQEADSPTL
Put plainly: MAdCAM-1 competition / receptor occupancy assay in human whole blood, α4β7-positive Th memory cells. The class given is cell-based. The following applies: human whole blood; for IC50: inhibition of MAdCAM-1 binding to α4β7-positive Th memory cells, FACS. The method, then: Analyte Competition Assay in CD4+ Integrin α4+β7-Lo Memory T Cells
Receptor occupancy in primary cells was determined by measuring the amount of biotinylated human recombinant MAdCAM-1-FC or human recombinant VCAM-1-Fc bound to selected cell populations using flow cytometry. Human recombinant MAdCAM-1-FC or human recombinant VCAM-1-FC (R&D systems) were biotinylated using commercially available reagents and protocol (Pierce).
Whole blood was collected from human donors in sodium heparin tubes. […] Cells were washed twice with 1 mL of 1X DPBS calcium magnesium free (CMF) (ThermoFisher Scientific) and resuspended in 100 microL of DPBS CMF.
Biotinylated human recombinant MAdCAM-1-Fc or VCAM-1-Fc were added at saturating concentration and incubated at room temperature for 1 hour. […] Cells were washed with 1 mL stain buffer-FBS (BD Biosciences) and resuspended in 100 μl stain Buffer-FBS (BD Biosciences) containing 4 mM MnCl2. […] Cells were then washed with 1 mL stain buffer-FBS and resuspended in […] stain buffer-FBS. The cells were incubated in the dark for 30 minutes at room temperature with 1 ul Streptavidin APC (Biolegend 0.2 mg/ml) and a panel of antibodies for the detection of memory T helper a4b7-positive cells subset. And amount of 5.0 ul each of the following antibodies were used; CD45 FITC (BioLegend 200 ug/ml), CD29 APC Cy7 (BioLegend 100 ug/ml), Integrin beta7 PE, (BioLegend concentration 50 μg/mL), CD49d V421 (BioLegend 50 μg/mL), CD3 V510 (BioLegend 30 μg/mL), CD4 PECy7 (BioLegend 100 μg/mL), CD45RO PerCP, BioLegend 200 μg/mL). The cells were then washed with stain-buffer-FBS and resuspended in 150 microL stain buffer-FBS for acquisition on the flow cytometer (BD FACSCanto™ flow cytometer and BDFACSDiva™ software). FACS data was acquire by electronic gating on the basis of forward versus side scatter, The cytometer was set to collect 20,000 events in each tube. Cell population were determined using the following markers, CD45+, CD3+, CD4+, CD45RO+, CD49d+, integrin b7, biotinylated ligands.
Compound receptor occupancy was defined as the decrease in the number of integrin β7+ or integrin β7-lo cells binding biotinylated rhMAdCAM-1 or rhVCAM-1, respectively.
Receptor occupancy was calculated with the following equation: 100−((% ligand-positive cells with compound/% ligand-positive cells DMSO)*100) In Vivo T Lymphocyte Trafficking Analysis in Mouse Model of Colitis

[1] abbreviates: read-out: MADCAM FACS α4β7 Th mem.

Where two headings read alike, the source gives them in different places.

As for `CC(C)C[C@@H]1NC(=O)c2ccc(-c3ccc(N4CCN(C(=O)COCC(=O)N5CCN(c6ccc(-c7ccc8cc7CNC(=O)[C@@H]7CCCN7[C@H](C(=O)NC(C)(C)C)[C@H](C)NC(=O)[C@H]([C@@H](C)O)NC(=O)[C@H](CC(=O)O)NC(=O)[C@H](CC(C)C)NC8=O)cc6)CC5)CC4)cc3)c(c2)CNC(=O)[C@@H]2CCCN2[C@H](C(=O)NC(C)(C)C)[C@H](C)NC(=O)[C@H]([C@@H](C)O)NC(=O)[C@H](CC(=O)O)NC1=O` [Compound 390], the EC50 (commonly the concentration that produces a half-maximal response) (FIG. 7, read-out: EC50, competition with saturating amount of MAdCAM) is 90 nM. The IC50 under setting [1] worked out at 90 nM.
Turning to `CC(C)C[C@@H]1NC(=O)C[C@H](CCCCN)N(C)C(=O)[C@H](CCCCN)NC(=O)[C@@H]2CCCN2[C@H](C(=O)NC(C)(C)C)[C@H](C)NC(=O)[C@H]([C@@H](C)O)NC(=O)[C@H](CC(=O)O)NC1=O` [Compound 456], the receptor occupancy at 1 µM (1000 nM, read-out: receptor occupancy at maximum concentration) was determined as 15%. In addition, the IC50 (read-out: MADCAM FACS a4b7 Th mem) was 1000 nM.
Take `CC(C)C[C@@H]1NC(=O)c2ccc(-c3ccc(N4CCN(C(=O)[C@H]5CCC[C@H]5C(=O)N5CCN(c6ccc(-c7ccc8cc7CNC(=O)[C@@H]7CCCN7[C@H](C(=O)NC(C)(C)C)[C@H](C)NC(=O)[C@H]([C@@H](C)O)NC(=O)[C@H](CC(=O)O)NC(=O)[C@H](CC(C)C)NC8=O)cc6)CC5)CC4)cc3)c(c2)CNC(=O)[C@@H]2CCCN2[C@H](C(=O)NC(C)(C)C)[C@H](C)NC(=O)[C@H]([C@@H](C)O)NC(=O)[C@H](CC(=O)O)NC1=O` [Compound 458]: the IC50 under setting [1] was 66 nM.
On to `CC(C)C[C@@H]1NC(=O)c2ccc(-c3ccc(N4CCN(C(=O)C56CC7CC(C5)CC(C(=O)N5CCN(c8ccc(-c9ccc%10cc9CNC(=O)[C@@H]9CCCN9[C@H](C(=O)NC(C)(C)C)[C@H](C)NC(=O)[C@H]([C@@H](C)O)NC(=O)[C@H](CC(=O)O)NC(=O)[C@H](CC(C)C)NC%10=O)cc8)CC5)(C7)C6)CC4)cc3)c(c2)CNC(=O)[C@@H]2CCCN2[C@H](C(=O)NC(C)(C)C)[C@H](C)NC(=O)[C@H]([C@@H](C)O)NC(=O)[C@H](CC(=O)O)NC1=O` [Compound 460], for which, under setting [1], the IC50 stood at 107 nM.
Still for that read-out and setting: then `CC(C)C[C@@H]1NC(=O)c2ccc(-c3ccc(N4CCN(C(=O)C5(C(=O)N6CCN(c7ccc(-c8ccc9cc8CNC(=O)[C@@H]8CCCN8[C@H](C(=O)NC(C)(C)C)[C@H](C)NC(=O)[C@H]([C@@H](C)O)NC(=O)[C@H](CC(=O)O)NC(=O)[C@H](CC(C)C)NC9=O)cc7)CC6)Cc6ccccc6C5)CC4)cc3)c(c2)CNC(=O)[C@@H]2CCCN2[C@H](C(=O)NC(C)(C)C)[C@H](C)NC(=O)[C@H]([C@@H](C)O)NC(=O)[C@H](CC(=O)O)NC1=O` [Compound 461], with 93 nM; and `COc1cc(C(=O)N2CCN(c3ccc(-c4ccc5cc4CNC(=O)[C@@H]4CCCN4[C@H](C(=O)NC(C)(C)C)[C@H](C)NC(=O)[C@H]([C@@H](C)O)NC(=O)[C@H](CC(=O)O)NC(=O)[C@H](CC(C)C)NC5=O)cc3)CC2)cc(-c2ccc(C(=O)N3CCN(c4ccc(-c5ccc6cc5CNC(=O)[C@@H]5CCCN5[C@H](C(=O)NC(C)(C)C)[C@H](C)NC(=O)[C@H]([C@@H](C)O)NC(=O)[C@H](CC(=O)O)NC(=O)[C@H](CC(C)C)NC6=O)cc4)CC3)cc2F)c1` [Compound 464], with 232 nM; and `CC(C)C[C@@H]1NC(=O)c2ccc(-c3ccc(N4CCN(C(=O)c5ccc(-c6cccc(C(=O)N7CCN(c8ccc(-c9ccc%10cc9CNC(=O)[C@@H]9CCCN9[C@H](C(=O)NC(C)(C)C)[C@H](C)NC(=O)[C@H]([C@@H](C)O)NC(=O)[C@H](CC(=O)O)NC(=O)[C@H](CC(C)C)NC%10=O)cc8)CC7)n6)nc5)CC4)cc3)c(c2)CNC(=O)[C@@H]2CCCN2[C@H](C(=O)NC(C)(C)C)[C@H](C)NC(=O)[C@H]([C@@H](C)O)NC(=O)[C@H](CC(=O)O)NC1=O` [Compound 466], with 164 nM.

These data come from patent US11713338B2, “Cyclic peptides multimers targeting α-4-β-7 integrin” (priority 2016, dated 2023).
